PMC10419975, “A Novel Betulinic Acid Analogue: Synthesis, Solubility, Antitumor Activity and Pharmacokinetic Study in Rats” (Molecules, 2023)
Values after ≈ are worked out from the molar mass of the structure shown. Like-named read-outs stand apart in the source and are kept apart here. Values belong to the molecule of their own block, whether it stands above or below them.

Legend:
[1] = Equilibrium solubility in different solvents (saturation shake-flask, HPLC); assay type: physicochemical; conditions: 20 °C, thermodynamic from solid
Experimental: (§1) The solubility was recorded at 20 °C in the present study. The solubility under equilibrium conditions was determined using the saturation shake-flask method with minor modifications. Briefly, an excess amount of SBE was added slowly to 1 mL of different solvents including methanol, ethanol, ethyl acetate, n-butanol, n-octanol, acetonitrile, petroleum ether as well as water. The mixture was then in crimp-sealed vials and was stirred vigorously at 20 °C for about 48 h. After that, the mixture was left to stand for an additional 24 h to reach equilibration, and then followed by centrifuging at 13,000 rpm for at least 10 min. 50 µL of the supernatant was transferred into a new tube, and evaporated to dryness under a slow nitrogen stream. The residue was then stored at −20 °C for further use or reconstituted in 1 mL of methanol. For the aqueous solution, 500 µL of the supernatant was transferred to the new tube, and the residue was reconstituted in 100 µL of methanol after dryness. After being centrifuged at 13,000 rpm for 10 min, a 20 μL aliquot was injected into the HPLC systems.

[2] = tested on: 2774 (ovarian cancer cell line); assay: In vitro cytotoxic activity, MTT assay; assay type: cell-based; conditions: 2774, MTT, 72 h
Experimental: (§2) The in vitro cytotoxic activities of SBE were evaluated on six different tumor cell lines including MPC2 (pancreatic cancer cell line), HT29 (colon cancer cell line), DU145 (prostate cancer cell line), NCI-H520 (lung cancer cell line), Hela (cervical cancer cell line) and 2774 (ovarian cancer cell line) using MTT assay. Cells were cultured in RPMI DMEM medium (containing 100 IU/mL G-penicillin, 100 µg/mL streptomycin and supplemented with 10% fetal calf serum) at 37 °C with 5% of CO2 in a CO2 incubator. In the MTT experiments, the cells were initially seeded in a 96-well plate with 0.1–0.2 mL (about 15 × 10^3 cells) of culture medium per well and allowed to attach overnight (about 24 h). Once attached, the cell confluence in each well reached approximately 50–60% when the drugs were added. Then the medium was replaced with fresh medium containing SBE or BA at different concentrations in four replicates. After incubating in the CO2 incubator for 3 days (about 72 h), 30 µL of MTT solution (3 mg/mL in culture medium) was added to each well and incubated for an additional 4 h. The medium was then aspirated and 150 µL of DMSO was added to each well to dissolve the formazan crystals thoroughly. The absorbance (OD value) was quantitated at 490 nm using a microplate reader (ELX800, Biotek, America). The relative growth inhibition rate (%) was calculated as (1 − mean absorbance of the sample/mean absorbance of the control) × 100%, considering the optical density of the control as 100%.

[3] = tested on: DU145 (prostate cancer cell line); assay: In vitro cytotoxic activity, MTT assay; assay type: cell-based; conditions: Homo sapiens, DU-145, 72 h
Experimental: as §2

[4] = tested on: HT29 (colon cancer cell line); assay: In vitro cytotoxic activity, MTT assay; assay type: cell-based; conditions: Homo sapiens, HT-29, 72 h
Experimental: as §2

[5] = tested on: Hela (cervical cancer cell line); assay: In vitro cytotoxic activity, MTT assay; assay type: cell-based; conditions: Homo sapiens, 72 h
Experimental: as §2

[6] = tested on: MPC2 (pancreatic cancer cell line); assay: In vitro cytotoxic activity, MTT assay; assay type: cell-based; conditions: 72 h
Experimental: as §2

[7] = tested on: NCI-H520 (lung cancer cell line); assay: In vitro cytotoxic activity, MTT assay; assay type: cell-based; conditions: Homo sapiens, 72 h
Experimental: as §2

[8] = tested on: Lewis lung carcinoma (LLC) tumor; assay: Lewis lung carcinoma (LLC) subcutaneous xenograft growth model; assay type: in vivo, C57BL/6J mice; conditions: 0.4 mmol/kg i.p. every other day; for tumor growth inhibition rate (IR) / effect on the body weight of the mice / mean tumor volume: 18 days; for effect on the body weight of the mice: vs vehicle control; for mean tumor volume: placebo 3522.72 ± 2446.63 mm^3; for tumor weight reduced by: day 18, vs vehicle control; for mean tumor weight: day 18, vehicle control 2.86 ± 1.16 g
Experimental: The antitumor activities in vivo assay were performed as described previously with minor modifications. C57BL/6J mice (20 ± 2 g) for the xenograft animal model were purchased from the Laboratory Animal Center of Jilin University (Jilin, China). A formulation of SBE (48 mg/mL) or BA (40 mg/mL) was prepared by mixing SBE or BA with ethanol/tween 80/normal saline (v/v/v = 1/1/18). Each of the mice was inoculated subcutaneously on the back with about 1 × 10^6 Lewis lung carcinoma (LLC) tumor cells (purchased from Nanjing KeyGen Biotech. Inc., China) to obtain the xenograft animal model. Then the mice were divided into three experimental groups (n = 4) randomly on the next day after implantation. BA (200 mg/kg, i.e., 0.4 mmol/kg), SBE (240 mg/kg, i.e., 0.4 mmol/kg) or placebo was injected intraperitoneally (i.p.) every other day. The changes in tumor length, width and body weight were also observed and recorded every other day. Xenograft tumor volume (TV) and growth inhibition rate (IR) were calculated as the following equation [25]:TV = 0.5 × length × width^2; IR = (Vcontrol − Vtreat)/Vcontrol × 100%.
Mice were continually observed for 18 days, and then sacrificed on day 18 via euthanasia. The implanted tumors then were excised and weighed for subsequent analysis. All the animal handling procedures above were according to standard operating procedures approved by the institutional animal care and use committee at Northeast Forestry University.

Bad/Bcl-xL ratio = assay: Western blot analysis in Hela cells; assay type: cell-based; conditions: 50 μmol/L, 24 h
Experimental: (§3) Expression of the proteins including cleaved-cas9, Bad and Bcl-xL in Hela cells treated with BA or SBE were determined by western blot analysis. Briefly, HeLa cells (1.7 × 10^5) were seeded in a 6-well microplate and allowed to attach overnight (about 24 h). The cells were then treated with BA or SBE at a concentration of 50 μmol/L for another 24 h. After that, cells were collected and lysed in PIRA buffer (Beyotime Biotech, Beijing, China) with PhosSTOP phosphatase inhibitor cocktail tablets (Roche Diagnostics, Mannheim, Baden-Württemberg, Germany). Bradford method was used to quantify the protein concentration. The samples were denatured at 100 °C for 5 min using a block heater. Then 30 μg of the denatured samples were separated by SDS-PAGE and allowed to transfer to a PVDF membrane. After the blots were blocked and washed, they were incubated overnight at 4 °C with specific primary antibodies against cleaved-cas9, Bad, Bcl-xL and β-actin. The blotting membrane was then washed three times using TBS-tween (Tris buffer saline with 1% Tween-20, pH 7.5), and incubated with IgG secondary antibodies for another 1 h at room temperature (or incubated overnight at 4 °C), followed by the same washing procedures above. After that, the immunoreactive proteins were developed with the ECL system. Imagelab software was used to quantify proteins and β-actin was used as a loading control. The changed fold was represented by the protein expression ratio [(target protein/the β-actin)/(the control group/the β-actin)].

Bcl-xL = assay: Western blot analysis in Hela cells; assay type: cell-based; conditions: 50 μmol/L, 24 h
Experimental: as §3

cleaved-cas9 (caspase 9) = assay: Western blot analysis in Hela cells; assay type: cell-based; conditions: 50 μmol/L, 24 h
Experimental: as §3

[9] = Pharmacokinetics of BE after i.g. dosing (previous study); assay type: in vivo, rat; conditions: BE i.g. 500 mg/kg vs SBE i.g. 200 mg/kg
[10] = design: method as in PMID 24095874; conditions: i.g. dose of 500 mg/kg; cited from earlier work
[11] = Equilibrium solubility in phosphate buffer at different pH; assay type: physicochemical; conditions: 20 °C, aqueous buffer, thermodynamic from solid
Experimental: as §1
(§4) Equilibrium solubility and apparent oil-water partition coefficient of SBE in pH 5.0, 6.0, 6.5, 7.0, 7.4 and 8.0 phosphate buffer were also determined. Equilibrium solubility was determined by the method described above. The apparent oil-water partition coefficient (P) was calculated through the mass concentration ratio of the oil phase and water phase after balancing SBE distribution using the following equations: P = C1V1/(C0V0 − C1V1), where C0 and C1 are the initial and final concentrations of SBE in n-octanol before and after equilibration, respectively; V0 is the volume of n-octanol (water-saturated), V1 is the final oil volume after equilibration.

[12] = Apparent oil/water partition coefficient (water-saturated n-octanol vs phosphate buffer); assay type: physicochemical; conditions: for logP: water-saturated n-octanol/phosphate buffer
Experimental: as §4, with “Equilibrium” for “Equilibrium solubility and apparent oil-water partition coefficient of SBE in pH 5.0, 6.0, 6.5, 7.0, 7.4 and 8.0 phosphate buffer were also determined. Equilibrium”

Bad = assay: Western blot analysis in Hela cells; assay type: cell-based; conditions: 50 μmol/L, 24 h, vs control cells
Experimental: as §3

solubility thermodynamic at 48 h ([1]; acetonitrile, organic solvent or mixture): 250 ± 20 µg/mL (≈ 547 µM)
solubility thermodynamic at 48 h ([1]; ethanol, organic solvent or mixture): 4130 ± 20 µg/mL (≈ 9040 µM)
solubility thermodynamic at 48 h ([1]; ethyl acetate, organic solvent or mixture): 4470 ± 240 µg/mL (≈ 9790 µM)
solubility thermodynamic at 48 h ([1]; methanol, organic solvent or mixture): 1920 ± 440 µg/mL (≈ 4200 µM)
solubility thermodynamic at 48 h ([1]; n-butanol, organic solvent or mixture): 4140 ± 100 µg/mL (≈ 9060 µM)
solubility thermodynamic at 48 h ([1]; n-octanol, organic solvent or mixture): 6230 ± 680 µg/mL (≈ 13600 µM)
solubility thermodynamic at 48 h ([1]; petroleum ether, organic solvent or mixture): 27 ± 10 µg/mL (≈ 59.1 µM)
solubility thermodynamic at 48 h ([1]; water): 36 ± 10 µg/mL (≈ 78.8 µM)
Compound: C=C(C)[C@@H]1CC[C@]2(C(=O)O)CC[C@]3(C)[C@H](CC[C@@H]4[C@@]5(C)CC[C@H](O)C(C)(C)[C@@H]5CC[C@]43C)[C@@H]12 [BA, 3β-hydroxy-lup-20(29)-en-28-oic acid, reference compound]
IC50 [2]: 39.5 ± 2.19 µM
IC50 [3]: 23.3 ± 2.2 µM
IC50 [4]: 32.7 ± 0.62 µM
IC50 [5]: 25.9 ± 1.87 µM
IC50 [6]: 38.6 ± 2.91 µM
IC50 [7]: 19.6 ± 2.44 µM
tumor growth inhibition rate (IR) [8]: ~61.93%
effect on the body weight of the mice [8]: no obvious effect
mean tumor volume [8]: 1340.91 ± 1186.99 mm^3
tumor weight reduced by [8]: ~68.89%
mean tumor weight [8]: 0.89 ± 0.53 g
ratio of Bad/Bcl-xL (Bad/Bcl-xL ratio): notably up-regulated
Bcl-xL levels (Bcl-xL): no significant difference
cleavage products of caspase 9 (cleaved-cas9 (caspase 9)): clearly increased

Compound: C=C(C)[C@@H]1CC[C@]2(CO)CC[C@]3(C)[C@H](CC[C@@H]4[C@@]5(C)CC[C@H](O)C(C)(C)[C@@H]5CC[C@]43C)[C@@H]12 [BE, lup-20(29)-en-3β, 28-diol]
AUC0−∞ of BE relative to that of SBE [9]: about 5%
AUC0−∞ [10]: 1408.3 ± 183.7 ng·h/mL

Compound: C=C(C)[C@@H]1CC[C@]2(COC(=O)CCC(=O)O)CC[C@]3(C)C(CCC4[C@@]5(C)CC[C@H](O)C(C)(C)C5CC[C@]43C)C12 (some centres unmarked) [SBE, 28-O-succinyl betulin]
solubility thermodynamic at 48 h ([11]; phosphate buffer pH 5): 2.79 µg/mL (≈ 5.14 µM)
solubility thermodynamic at 48 h ([11]; phosphate buffer pH 6): 2.66 µg/mL (≈ 4.9 µM)
solubility thermodynamic at 48 h ([11]; phosphate buffer pH 6.5): 2.46 µg/mL (≈ 4.53 µM)
solubility thermodynamic at 48 h ([11]; phosphate buffer pH 7): 10.9 µg/mL (≈ 20.1 µM)
solubility thermodynamic at 48 h ([11]; phosphate buffer pH 7.4): 29.8 µg/mL (≈ 54.9 µM)
solubility thermodynamic at 48 h ([11]; phosphate buffer pH 8): 15.3 µg/mL (≈ 28.2 µM)
Apparent Oil/Water Partition Coefficient (P) ([12]; n-octanol/phosphate buffer pH 5): 9.68 ± 0.13
Apparent Oil/Water Partition Coefficient (P) ([12]; n-octanol/phosphate buffer pH 6): 9.57 ± 0.30
Apparent Oil/Water Partition Coefficient (P) ([12]; n-octanol/phosphate buffer pH 6.5): 9.75 ± 0.21
Apparent Oil/Water Partition Coefficient (P) ([12]; n-octanol/phosphate buffer pH 7): 8.63 ± 0.19
Apparent Oil/Water Partition Coefficient (P) ([12]; n-octanol/phosphate buffer pH 7.4): 8.14 ± 0.27
Apparent Oil/Water Partition Coefficient (P) ([12]; n-octanol/phosphate buffer pH 8): 9.53 ± 0.23
logP ([12]; pH 5, n-octanol/PBS, over pH 5–8, read-out: LogP values (all)): 0.91 to 0.99
logP ([12]; pH 5, n-octanol/phosphate buffer pH 5, read-out: LogP): 0.99 ± 0.01
logP ([12]; pH 6, n-octanol/phosphate buffer pH 6, read-out: LogP): 0.98 ± 0.01
logP ([12]; pH 6.5, n-octanol/phosphate buffer pH 6.5, read-out: LogP): 0.99 ± 0.01
logP ([12]; pH 7, n-octanol/phosphate buffer pH 7, read-out: LogP): 0.94 ± 0.01
logP ([12]; pH 7.4, n-octanol/phosphate buffer pH 7.4, read-out: LogP): 0.91 ± 0.01
logP ([12]; pH 8, n-octanol/phosphate buffer pH 8, read-out: LogP): 0.98 ± 0.01
tumor growth inhibition rate (IR) [8]: about 88.69%
effect on the body weight of the mice [8]: no obvious effect
mean tumor volume [8]: 398.17 ± 384.06 mm^3
tumor weight reduced by [8]: about 85.31%
mean tumor weight [8]: 0.42 ± 0.40 g
expression level of Bad (Bad): significantly higher
Bcl-xL levels (Bcl-xL): no significant difference
